Results published in patent US9074163B2, “Targeted performance of hypohalite systems thereof” (The Clorox Company, priority 2012, dated 2015).

Assay: percentage initial hypochlorite remaining as a function of time after mixing oxidant with reductant
Type: physicochemical
Details: any pH below 12
Excerpt: The amount of available halogen oxidant in the composition may be determined by placing samples of the composition into about 50 milliliters of distilled water, followed by addition of about 10 milliliters of a 10 wt % solution of potassium iodide and addition of about 10 milliliters of a 10 volume % solution of sulfuric acid, the resulting mixture being well stirred. The resulting yellow to brown solution, whose color is the result of oxidation of free iodine ion (I′) to molecular iodine (I2), is then volumetrically titrated to an essentially colorless endpoint by addition of standardized 0.1 Molar sodium thiosulfate (Na2S2O3) titrant. […] Stability results are then expressed by repeated assays over time using identically prepared samples resulting from the same composition, normalized to 100 percent representative of the starting available chlorine measured initially.
Alternatively, at lower concentrations of hypochlorite, generally below about 2,000 ppm or 0.2 wt %, spectroscopic measurement of the absorption of aqueous solutions may be used to monitor the concentration, and resulting changes, of the hypochlorous acid species in solution. […] By use of controls, the relative level of hypochlorite can then be monitored and calculated by measuring absorbance of solutions by means of a suitable instrument, such as a spectrophotometer. […]

SMILES: O=C(O)CN(CCN(CC(=O)O)CC(=O)O)CC(=O)O [EDTA, ethylene diamine tetra-acetic acid]
- reaction of reductant with hypochlorite (quenching rate): reacts almost instantly
